Assay results from patent US5760036A, “Aminediol protease inhibitors” (E. R. Squibb & Sons, Inc., priority 1995, dated 1998).
Where two headings read alike, the source gives them in different places.

Key:
[1] = tested on: RF strain of HIV (CEM-SS cells); test: Cell Culture Anti-HIV Activity (cell viability, formazan); type: cell-based
Summary of the method: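 Half-log compound dilutions added to CEM-SS cells (5000/well) carrying HIV RF (MOI 0.04), 6 days, 37° C. Cell protection measured as formazan from tetrazolium, A450. IC50: drug level restoring infected-cell formazan to 50% of the uninfected untreated control.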

[2] = molecular target: T1, HIV protease (Human immunodeficiency virus type 1 group M subtype B, UniProt P04585); test: HIV Protease Assay; type: biochemical
T1 construct: and purified protease
Summary of the method: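 At a single final concentration of 10 μM (4% DMSO), inhibitors were added to a 30-minute, 37° C reaction of purified enzyme with 450 μM H2N-Val-Ser-Gln-Asn-(β-naphthyl-alanine)-Pro-Val-Ile-OH at pH 5.5 (sodium acetate, BSA). Hydrolysis was quantified by reverse-phase HPLC with 220 nm detection after acid quench.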

[3] = Human immunodeficiency virus 1, CEM-SS, 144 h, CEM-SS cells, RF strain of HIV, multiplicity of infection 0.04, 6 days at 37° C., 450 nm, read-out: HIV (CEM Cells) IC50
[4] = pH 5.5, 10 μM inhibitor, 4% DMSO, 450 μM substrate, pH 5.5, 30 minutes at 37° C., RP-HPLC, read-out: HIV Protease % Inhibition at 10 μM
[5] = CEM-SS cells, RF strain of HIV, multiplicity of infection 0.04, 6 days at 37° C., 450 nm, read-out: HIV (CEM Cells) IC50

SMILES	inhibition at 10 µM [2, 4] [%]	IC50 [1, 3] [µM]	also measured
CC(C)(C)OC(=O)N[C@@H](Cc1ccccc1)[C@H](O)CNC[C@@H](O)[C@H](Cc1ccccc1)NC(=O)COc1ccccc1 (relative stereo) [Compound 72, 1S-[1R*,2S*(2S*,3R*)]]-[2-Hydroxy-3-[[2-hydroxy-3-[(phenoxyacetyl)amino]-4-phenylbutyl]amino]-1-(phenylmethyl)propyl]carbamic acid, 1,1-dimethylethylester]	51	> 3.2	
CC(C)(C)OC(=O)N[C@@H](Cc1ccccc1)[C@H](O)CNC[C@@H](O)[C@H](Cc1ccccc1)NC(=O)C(NC(=O)OCc1ccccc1)C(C)(C)CO (single isomer, unassigned; isomer b) [Compound 309, [1S-[1R*,2S*(2S*, 3R*)]]-[1-[[[3-[[(1,1-Dimethylethoxy)carbonyl]amino]-2-hydroxy-4-phenylbutyl]amino]-2-hydroxy-1-(phenylmethyl)-propyl]amino]carbonyl]-2-(hydroxymethyl)-2-methylpropyl]carbamic acid, phenylmethyl ester. isomer B]			IC50 [1, 5]: 1.8 µM; HIV Protease % Inhibition at 10 μM ([2]; 10 μM inhibitor, 4% DMSO, 450 μM substrate, pH 5.5, 30 minutes at 37° C., RP-HPLC): 100%
CC(C)[C@H](NC(=O)OCc1ccccc1)C(=O)N(C)[C@@H](Cc1ccccc1)[C@H](O)CNC[C@@H](O)[C@H](Cc1ccccc1)NC(=O)OC(C)(C)C [Compound 134, [S-[1R*,2S*(2S*,3R*)]]-N-[3-[[3-[[(1,1-Dimethylethoxy)carbonyl]amino]-2-hydroxy-4-phenylbutyl]amino]-2-hydroxy-1-(phenylmethyl)-propyl]-N-methyl-N^2-[(phenylmethoxy)carbonyl]-L-valinamide]	87	> 5	
CNC(=O)N[C@H](C(=O)N[C@@H](Cc1ccccc1)[C@H](O)CNC[C@@H](O)[C@H](Cc1ccccc1)NC(=O)OC(C)(C)C)C(C)(C)C (relative stereo) [Compound 263, [1R*,2S*(2S*,3R*)]-N-[3-[[3-[[(1,1-Dimethylethoxy)carbonyl]amino]-2-hydroxy-4-phenylbutyl]amino]-2-hydroxy-1-(phenylmethyl)propyl]-N^2-[(methylamino)carbonyl]-3-methyl-L-valinamide]	98	0.34	
CC(C)[C@H](NC(=O)CC(O)CO)C(=O)N[C@@H](Cc1ccccc1)[C@H](O)CNC[C@@H](O)[C@H](Cc1ccccc1)NC(=O)OC(C)(C)C (relative stereo) [Compound 254, [1R*,2S*(2S*,3R*)]-N-[3-[[3-[[(1,1-Dimethylethoxy)carbonyl]amino]-2-hydroxy-4-phenylbutyl]amino]-2-hydroxy-1-(phenylmethyl)propyl]-N^2-(3,4-dihydroxy-1-oxobutyl)-L-valinamide]	98	17	
CC(C)(C)OC(=O)N[C@@H](Cc1ccccc1)[C@H](O)CNC[C@@H](O)[C@H](Cc1ccncc1)NC(=O)OC(C)(C)C [Compound 30, [1S-[1R*,2S*(2S*,3R*)]]-[3-[[3-[[(1,1-Dimethylethoxy)-carbonyl]amino]-2-hydroxy-4-phenylbutyl]amino]-2-hydroxy-1-(4-pyridinylmethyl)propyl]carbamic acid, 1,1-dimethylethyl ester]	97	0.5	
CC(C)(C)OC(=O)N[C@@H](Cc1ccccc1)[C@H](O)CNC[C@@H](O)[C@H](Cc1ccccc1)NC(=O)C1NC(=O)c2ccccc21 (stereo partly drawn) [Compound 223, [1S-[1R*,2S*(2S*,3R*)]]-[3-[[3-[[(2,3-Dihydro-3-oxo-1H-isoindol-1-yl)carbonyl]amino]-2-hydroxy-4-phenylbutyl]amino]-2-hydroxy-1-(phenylmethyl)propyl]carbamic acid, 1,1-dimethylethyl ester]	89	1.4	
CN(C(=O)OC(C)(C)C)[C@@H](Cc1ccccc1)[C@H](O)CNC[C@@H](O)[C@H](Cc1ccccc1)NC(=O)OC(C)(C)C [Compound 132, [1S-[1R*,2S*(2S*,3R*)]]-3-[[(1,1-Dimethylethoxy)carbonyl]amino]-2-hydroxy-4-phenylbutyl]amino]-2-hydroxy-1-(phenylmethyl)-propyl]methylcarbamic acid, 1,1-dimethylethyl ester]	65	> 3	
CC(C)(C)OC(=O)N[C@@H](Cc1ccccc1)[C@H](O)CNC[C@@H](O)[C@H](Cc1ccc(OCC(=O)N2CCOCC2)cc1)NC(=O)OC(C)(C)C [Compound 226, [1S-[1R*,2S*(2S*,3R*)]]-[3-[[3-[[(1,1-Dimethylethoxy)carbonyl]amino]-2-hydroxy-4-(4-[2-(4-morpholinyl)-2-oxo-ethoxy]phenyl]butyl]amino]-2-hydroxy-1-(phenylmethyl)propyl]carbamic acid, 1,1-dimethylethyl ester]	98	0.05	
COC(=O)N[C@H](C(=O)N[C@@H](Cc1ccccc1)[C@H](O)CNC[C@@H](O)[C@H](Cc1ccccc1)NC(=O)OC(C)(C)C)C(C)(C)C (relative stereo) [Compound 246, [1R*,2S*(2S*,3R*)]-N-[3-[[3-[[(1,1-Dimethylethoxy)carbonyl]amino]-2-hydroxy-4-phenylbutyl]amino]-2-hydroxy-1-(phenylmethyl)propyl]-N^2-(2-methoxycarbonyl)-3-methyl-L-valinamide]	100	0.04	
CC(C)(C)OC(=O)N[C@@H](Cc1ccccc1)[C@H](O)CNC[C@@H](O)[C@H](Cc1ccccc1)NC(=O)[C@@H](NC(=O)OCc1nc2ccccc2o1)C(C)(C)C [Compound 257, [S-[1R*,2S*(2S*,3R*)]]-[2,2-Dimethyl-1-[[[3-[[3-[[(1,1-dimethylethoxy)carbonyl]amino]-2-hydroxy-4-phenylbutyl]-amino]-2-hydroxy-1-(phenylmethyl)propyl]amino]-carbonyl]propyl]carbamic acid, (2-benzoxazolyl)methyl ester]	99	0.03	
CC(C)(C)OC(=O)N[C@@H](Cc1ccccc1)[C@H](O)CN(C[C@@H](O)[C@H](Cc1ccccc1)NC(=O)OC(C)(C)CO)C(=O)OCC[Si](C)(C)C [Compound 164, [R-(R*,S*)]-[[[(Trimethylsilyl)-ethoxy]carbonyl]iminobis[2-hydroxy-1-(phenylmethyl)-3,1-propanediyl]1biscarbamic acid, 1,1-di-methylethyl 2-hydroxy-1,1-dimethylethyl ester]			IC50 ([1]; Human immunodeficiency virus 1, CEM-SS, 144 h, read-out: HIV (CEM Cells) IC50 (μM)): 0.04 µM; inhibition at 10 µM ([2]; pH 5.5, read-out: HIV Protease % Inhibition at 10 μM, 10 μM inhibitor, 4% DMSO, 450 μM substrate, pH 5.5, 30 minutes at 37° C., RP-HPLC): 99%
CC(C)[C@H](NC(=O)OCc1nc2ccccc2[nH]1)C(=O)N[C@@H](Cc1ccccc1)[C@H](O)CNC[C@@H](O)[C@H](Cc1ccccc1)NC(=O)OC(C)(C)C [Compound 93, [S-[1R*,2S*(2S*,3R*)[[-N-[3-[[3-[[(1,1-Dimethylethoxy)carbonyl]amino]-2-hydroxy-4-phenylbutyl]amino]-2-hydroxy-1-(phenylmethyl)propyl]-N2 -]-(1H-benzimidazol-2-ylmethoxy)carbonyl]-L-valinamide]	100	0.18	

The next lines start with results.

inhibition at 10 µM [2, 4] [%]	SMILES	IC50 [1, 3] [µM]	also measured
95	C[C@@H](O)C(C)(C)OC(=O)N[C@@H](Cc1ccccc1)[C@H](O)CNC[C@@H](O)[C@H](Cc1ccccc1)NC(=O)OC(C)(C)C [Compound 275, [1S-[1R*,2S*),(S*)]-[Iminobis [2-hydroxy-1-(phenylmethyl)-3,1-propanediyl]]biscarbamic acid, 1,1-dimethylethyl 2-hydroxy-1,1-dimethylpropyl ester]	0.45	
100	COC(=O)N[C@H](C(=O)N[C@@H](Cc1ccccc1)[C@H](O)CNC[C@@H](O)[C@H](Cc1ccccc1)NC(=O)[C@@H](NC(=O)OC)C(C)(C)C)C(C)(C)C (relative stereo) [Compound 324, 1S-(1S*,2R*)-N, N'-Iminobis[2-hydroxy-1-(phenylmethyl)-3,1-propanediyl]bis(imino)bis[1-(1,1-dimethylethyl)-2-oxo-2,1-ethanediyl]]biscarbamic acid, dimethyl ester]	0.22	
100	CC1(C)CCCC1(O)C(=O)N[C@@H](Cc1ccccc1)[C@H](O)CNC[C@@H](O)[C@H](Cc1ccccc1)NC(=O)C1(O)CCCC1(C)C (single isomer, unassigned; isomer a) [Compound 336]		IC50 [1, 5]: 0.04 µM
100	CC(C)(C)OC(=O)N[C@@H](Cc1ccccc1)[C@H](O)CNC[C@@H](O)[C@H](Cc1ccccc1)NC(=O)[C@@H](NC(=O)OCC1COC(=O)N1)C(C)(C)C (stereo partly drawn) [Compound 315, [S-[1R*,2S*(2S*,3R*)]]-[2,2-Dimethyl-l-[[[3-[[3-[[(1,1-dimethylethoxy)carbonyl]amino]-2-hydroxy-4-phenylbutyl]amino]-2-hydroxy-1-(phenylmethyl)-propyl]amino]carbonyl]propyl]carbamic acid, (2-oxo-4-oxazolidinyl)methyl ester]	1.6	
100	CC(C)(C)OC(=O)N[C@@H](Cc1ccccc1)[C@H](O)CNC[C@@H](O)[C@H](Cc1ccccc1)NC(=O)OC1CCCOC1 (stereo partly drawn) [Compound 318, [1S-(1R*,2S*)]-[Iminobis[2-hydroxy-1-(phenylmethyl)-3,1-propanediyl)]bis[carbamic acid], 1,1-dimethylethyl-3-tetrahydropyranyl ester]	0.1	
